One may read the MIC as the smallest concentration in the dilution series that meets the test's criterion for growth inhibition. Low values mean a more susceptible organism, high ones a less susceptible organism. The term MBC denotes the lowest tested concentration that kills the bacteria rather than only halting them. The low end stands for more potent killing, the high end for less potent killing.

This is an account of results in PMC5830399, “Aggregating sequences that occur in many proteins constitute weak spots of bacterial proteostasis” (Nature Communications, 2018).

Molecules are shown by their SMILES. Converted amounts (≈) assume the structure as drawn. Peptide text beside a SMILES is read from it. * marks the point of attachment. FITC = O=C1OC2(c3ccc(O)cc3Oc3cc(O)ccc32)c2ccc(NC(=S)*)cc21 Where only a bound is given, the exact number is not on record here.

What all share (type): cell-based, Escherichia coli
In assay [1] the test system is E. coli O157:H7. The following applies: E. coli O157(:H7); HPLC-purified peptide; broth microdilution (EUCAST), LB, overnight 37 °C, OD 590 nm. Here is the method:
The MICs of active peptides were determined via the Broth microdilution assay according to the EUCAST guideline, which was performed in 96-well polystyrene flat bottom microtiter plates (BD Biosciences). Briefly, a single colony was inoculated into 5 mL LB medium and grown to the end-exponential growth phase in a shaking incubator at 37 °C. Cultures were subsequently diluted to an OD600 (optical density) of 0.002 ([…]) in fresh LB medium. One hundred microliters of LB medium with different concentration of peptides ranging from 100 to 0.75 µg/mL were serially diluted to the sterile 96-well plate (at least three wells in each plate). Afterwards, 100 µL of the diluted bacteria were pipetted into 96-well plates containing different concentration of peptides. In each plate, the grown bacteria with the maximum concentration of carrier and medium were considered as positive and negative controls, respectively. Thereafter, 96-well plates were statically incubated overnight at 37 °C to allow bacterial growth. OD was measured at 590 nm for 1 s using a multipurpose ultraviolet–visible plate reader, and the absorbance of the growth bacteria was measured using a Perkin Elmer spectrophotometer (1420 Multilabel Counter Victor 3).

The next assay has as its system E. coli O157. The following applies: HPLC-purified peptide. An excerpt:
In order to investigate whether APR redundancy does result in proteostatic collapse, we selected resynthesized and high-performance liquid chromatography (HPLC)-purified four positive peptides from the screen, P2, P5, P14, and P105, as well as three negative peptides, P3, P4, and P11, and confirmed their MIC and minimum bactericidal concentration (MBC) values (Table 1). […] These IBs, which are also called large polar aggregates, could be stained with pentameric formyl thiophene acetic acid (pFTAA, Fig. 1j and supplementary Fig. 3), an extensively characterized amyloid-specific dye[20]–[22], which specifically binds to amyloid-like aggregates as well as disease-associated protein IBs[22]. This IB-staining pattern could be observed for all bactericidal peptides, but not for any of the other peptides, although some other pFTAA-positive structures could be discerned (Supplementary Fig. 3). We confirmed the cross-β-structure content of IB using thioflavin-T staining and correlative atomic force microscopy nanoimaging and Fourier transform infrared spectroscopy (Supplementary Note 2 and Supplementary Fig. 4).

Assay [2] concerns E. coli O157:H7. Briefly: Flow cytometry of bacteria treated with FITC peptides (uptake) and propidium iodide. As to conditions: for cells positive for FITC (peptide uptake): E. coli O157:H7, FITC-labeled peptide at MIC, flow cytometry; for PI-positive cells (membrane permeabilization): E. coli O157:H7, peptide at MIC, N = 4. Here is the method:
Using a double staining technique with propidium iodide (PI) and FITC peptides, killing rate and peptide uptake were evaluated in a two-dimensional analysis. Briefly, end-exponential growth phase E. coli O157 cells (10^8 CFU/mL) were washed with PBS and treated with peptides (P2 or Pro2/ FITC labeled) at MIC value for different time periods. Treated bacteria were again washed with PBS buffer three times. One microliter of PI (Invitrogen) was added to the bacteria, and after incubation for 5 min, the mixture was aliquoted (500 µL) into FACS tubes. To correlate the activity of the peptides with cell death, the fluorescence intensity was measured in two channels using the Gallios^TM Flow Cytometer, PI: excitation 536 nm and emission 617 nm, FITC: excitation 490 nm and emission 525 nm. Heated bacteria at 90 °C for 10 min were used as PI-positive control.
Background: A flow cytometer gives signals particle by particle.

Turning to `CC(C)C[C@H](NC(=O)[C@H](C)NC(=O)[C@H](CCCNC(=N)N)NC(=O)[C@@H]1CCCN1C(=O)[C@H](CCCNC(=N)N)NC(=O)[C@H](CCCNC(=N)N)NC(=O)[C@H](CC(C)C)NC(=O)[C@H](CC(C)C)NC(=O)[C@@H](NC(=O)[C@@H](NC(=O)[C@H](CC(C)C)NC(=O)[C@H](CC(C)C)NC(=O)[C@H](C)NC(=O)[C@@H](N)CCCNC(=N)N)[C@@H](C)O)[C@@H](C)O)C(=O)N[C@@H](CC(C)C)C(=O)N[C@H](C(=O)N[C@H](C(=O)N[C@@H](CC(C)C)C(=O)N[C@@H](CC(C)C)C(=O)N[C@@H](CCCNC(=N)N)C(=O)N[C@@H](CCCNC(=N)N)C(=O)O)[C@@H](C)O)[C@@H](C)O` [P5] (H-RALLTTLLRRPRALLTTLLRR-OH), in the assay with E. coli O157:H7 [1], the MIC turned out to be 6 µg/mL (≈ 2.4 µM). The molecule also displayed an MBC in the assay on E. coli O157 of 6 µg/mL (≈ 2.4 µM).
In the case of `CC(C)C[C@H](NC(=O)[C@H](C)NC(=O)[C@H](CCCNC(=N)N)NC(=O)[C@@H]1CCCN1C(=O)[C@H](CCCNC(=N)N)NC(=O)[C@H](CCCNC(=N)N)NC(=O)[C@H](CC(C)C)NC(=O)[C@H](CC(C)C)NC(=O)[C@@H](NC(=O)[C@@H](NC(=O)[C@H](CC(C)C)NC(=O)[C@H](CC(C)C)NC(=O)[C@H](C)NC(=O)[C@H](CCCNC(=N)N)NC(=O)[C@@H](N)CCCNC(=N)N)[C@@H](C)O)[C@@H](C)O)C(=O)N[C@@H](CC(C)C)C(=O)N[C@H](C(=O)N[C@H](C(=O)N[C@@H](CC(C)C)C(=O)N[C@@H](CC(C)C)C(=O)N[C@@H](CCCNC(=N)N)C(=O)N[C@@H](CCCNC(=N)N)C(=O)O)[C@@H](C)O)[C@@H](C)O` [P5R] (H-RRALLTTLLRRPRALLTTLLRR-OH), the MIC in the assay on E. coli O157:H7 [1] was 12 µg/mL (≈ 4.51 µM). The molecule also returned an MBC with E. coli O157 of 12 µg/mL (≈ 4.51 µM).
`CC(C)C[C@H](NC(=O)CNC(=O)[C@H](CCCNC(=N)N)NC(=O)[C@@H]1CCCN1C(=O)[C@H](CCCNC(=N)N)NC(=O)[C@H](CCCNC(=N)N)NC(=O)[C@@H](NC(=O)[C@H](CC(C)C)NC(=O)[C@H](C)NC(=O)[C@H](CC(C)C)NC(=O)CNC(=O)[C@H](CC(C)C)NC(=O)CNC(=O)[C@H](CCCNC(=N)N)NC(=S)Nc1ccc2c(c1)C(=O)OC21c2ccc(O)cc2Oc2cc(O)ccc21)C(C)C)C(=O)NCC(=O)N[C@@H](CC(C)C)C(=O)N[C@@H](C)C(=O)N[C@@H](CC(C)C)C(=O)N[C@H](C(=O)N[C@@H](CCCNC(=N)N)C(=O)N[C@@H](CCCNC(=N)N)C(=O)O)C(C)C` [FITC-P2] ({FITC}-RGLGLALVRRPRGLGLALVRR-OH; N-terminus and C-terminus assumed): the “cells positive for FITC (peptide uptake)” value in the assay with E. coli O157:H7 [2] (after 15 min, N = 4, mean and s.d.) is 97.7 ± 2.9%; with E. coli O157:H7 [2] (after 1 h and beyond) it was around 100%. Further, the “PI-positive cells (membrane permeabilization)” value is recorded as 2.1 ± 1.3% in the assay on E. coli O157:H7 [2] (after 15 min) and 85 ± 13.2% in the assay with E. coli O157:H7 [2] (after 3 h).
`CC(C)C[C@H](NC(=O)CNC(=O)[C@H](CCCNC(=N)N)NC(=O)[C@@H]1CCCN1C(=O)[C@H](CCCNC(=N)N)NC(=O)[C@H](CCCNC(=N)N)NC(=O)[C@@H]1CCCN1C(=O)[C@H](CC(C)C)NC(=O)[C@H](C)NC(=O)[C@@H]1CCCN1C(=O)CNC(=O)[C@H](CC(C)C)NC(=O)CNC(=O)[C@@H](N)CCCNC(=N)N)C(=O)NCC(=O)N1CCC[C@H]1C(=O)N[C@@H](C)C(=O)N[C@@H](CC(C)C)C(=O)N1CCC[C@H]1C(=O)N[C@@H](CCCNC(=N)N)C(=O)N[C@@H](CCCNC(=N)N)C(=O)O` [P2Pro] (H-RGLGPALPRRPRGLGPALPRR-OH) registered an MBC against E. coli O157 above 100 µg/mL.
As to `CC(C)C[C@H](NC(=O)[C@H](C)NC(=O)[C@@H](N)CCCNC(=N)N)C(=O)N[C@@H](CC(C)C)C(=O)N[C@@H](CCCNC(=N)N)C(=O)N[C@H](C(=O)N[C@@H](CC(C)C)C(=O)N[C@@H](CC(C)C)C(=O)N[C@@H](CCCNC(=N)N)C(=O)N[C@@H](CCCNC(=N)N)C(=O)N1CCC[C@H]1C(=O)N[C@@H](CCCNC(=N)N)C(=O)N[C@@H](C)C(=O)N[C@@H](CC(C)C)C(=O)N[C@@H](CC(C)C)C(=O)N[C@H](C(=O)N[C@H](C(=O)N[C@@H](CC(C)C)C(=O)N[C@@H](CC(C)C)C(=O)N[C@@H](CCCNC(=N)N)C(=O)N[C@@H](CCCNC(=N)N)C(=O)O)[C@@H](C)O)[C@@H](C)O)[C@@H](C)O` [P105] (H-RALLRTLLRRPRALLTTLLRR-OH), the MIC against E. coli O157:H7 [1] is 12 µg/mL (≈ 4.69 µM). The MBC with E. coli O157 was found to be 12 µg/mL (≈ 4.69 µM).
On to `CC(C)C[C@H](NC(=O)CNC(=O)[C@H](CCCNC(=N)N)NC(=O)[C@@H]1CCCN1C(=O)[C@H](CCCNC(=N)N)NC(=O)[C@H](CCCNC(=N)N)NC(=O)[C@H](C)NC(=O)[C@H](CC(C)C)NC(=O)[C@H](CC(C)C)NC(=O)[C@H](C)NC(=O)[C@H](CC(C)C)NC(=O)[C@H](CC(C)C)NC(=O)CNC(=O)[C@@H](N)CCCNC(=N)N)C(=O)N[C@@H](CC(C)C)C(=O)N[C@@H](C)C(=O)N[C@@H](CC(C)C)C(=O)N[C@@H](CC(C)C)C(=O)N[C@@H](C)C(=O)N[C@@H](CCCNC(=N)N)C(=O)N[C@@H](CCCNC(=N)N)C(=O)O` [P14] (H-RGLLALLARRPRGLLALLARR-OH), for which, in the assay with E. coli O157:H7 [1], the MIC turned out to be 6 µg/mL (≈ 2.55 µM). In the assay with E. coli O157, this molecule returned an MBC of 6 µg/mL (≈ 2.55 µM).
